Laboratory results published in paper PMC5988656, “Phase I studies of AZD1208, a proviral integration Moloney virus kinase inhibitor in solid and haematological cancers” (British Journal of Cancer, 2018).

Tests used:
[1] = Solid tumour dose-escalation study: pharmacokinetics (plasma, urine); type: in vivo, human; details: for Plasma concentration of AZD1208, Gmean: Cycle 1, Day 15
Experimental: The schedules for collection of blood and urine samples for PK analyses in each cohort in both studies are described in Supplementary Table 1. When necessary for clinical response assessment in the AML study, a bone marrow sample for PK analysis was collected at Cycle 1, Day 28.
The concentration of AZD1208 in plasma and urine was determined by Covance, on behalf of Clinical Bioanalysis Alliance at AstraZeneca R&D, using a bioanalytical method. A volume of 0.05 ml of K2EDTA human plasma sample was extracted by liquid–liquid extraction using 0.7 ml of methyl tert-butyl ether. Approximately 100 µl of the supernatant was transferred, evaporated to dryness and reconstituted with 350 µl of 1:1 methanol:water, and a 5 µl injection was made to the high-performance liquid chromatography (HPLC) column. HPLC separations were performed on a Phenomenex LUNA C18 (50 × 2 mm, 5 µm) column using a mobile phase of 0.1% formic acid in water (A) and 0.1% formic acid in acetonitrile (B) at a flow rate of 0.6 ml/min and a column temperature of 40 °C. AZD1208-D5 was used as the internal standard. Detection was performed in a Sciex API4000 mass spectrometer, in a positive electrospray ionisation mode, using multiple reaction monitoring detection (AZD1208: 380.0–>248.1; AZD1208-D5: 385.0–>253.1).

[2] = test system: AML cell lines; details: cited from earlier work

SMILES: N[C@@H]1CCCN(c2c(/C=C3\SC(=O)NC3=O)cccc2-c2ccccc2)C1 [AZD1208]
- Plasma concentration of AZD1208, Gmean ([1]; 0.25 h post-dose, 540 mg): n=3 496.8 ng ml
- Plasma concentration of AZD1208, Gmean ([1]; 0.5 h post-dose, 120 mg): n=3 1109 ng ml
- Plasma concentration of AZD1208, Gmean ([1]; 0.5 h post-dose, 240 mg): n=6 881.5 ng ml
- Plasma concentration of AZD1208, Gmean ([1]; 0.5 h post-dose, 360 mg): n=3 884.4 ng ml
- Plasma concentration of AZD1208, Gmean ([1]; 0.5 h post-dose, 540 mg): n=3 774 ng ml
- Plasma concentration of AZD1208, Gmean ([1]; 0.5 h post-dose, 700 mg): n=4 1042 ng ml
- Plasma concentration of AZD1208, Gmean ([1]; 0.5 h post-dose, 800 mg): n=2 1420 ng ml
- Plasma concentration of AZD1208, Gmean ([1]; 1 h post-dose, 120 mg): n=3 1319 ng ml
- Plasma concentration of AZD1208, Gmean ([1]; 1 h post-dose, 240 mg): n=6 1316 ng ml
- Plasma concentration of AZD1208, Gmean ([1]; 1 h post-dose, 360 mg): n=3 1983 ng ml
- Plasma concentration of AZD1208, Gmean ([1]; 1 h post-dose, 540 mg): n=3 1691 ng ml
- Plasma concentration of AZD1208, Gmean ([1]; 1 h post-dose, 700 mg): n=4 1320 ng ml
- Plasma concentration of AZD1208, Gmean ([1]; 1 h post-dose, 800 mg): n=2 1783 ng ml
- Plasma concentration of AZD1208, Gmean ([1]; 1.5 h post-dose, 120 mg): n=3 1367 ng ml
- Plasma concentration of AZD1208, Gmean ([1]; 1.5 h post-dose, 240 mg): n=6 1843 ng ml
- Plasma concentration of AZD1208, Gmean ([1]; 1.5 h post-dose, 360 mg): n=3 3212 ng ml
- Plasma concentration of AZD1208, Gmean ([1]; 1.5 h post-dose, 540 mg): n=3 3302 ng ml
- Plasma concentration of AZD1208, Gmean ([1]; 2 h post-dose, 120 mg): n=3 1681 ng ml
- Plasma concentration of AZD1208, Gmean ([1]; 2 h post-dose, 240 mg): n=6 2340 ng ml
- Plasma concentration of AZD1208, Gmean ([1]; 2 h post-dose, 360 mg): n=3 3106 ng ml
- Plasma concentration of AZD1208, Gmean ([1]; 2 h post-dose, 540 mg): n=3 3646 ng ml
- Plasma concentration of AZD1208, Gmean ([1]; 2 h post-dose, 700 mg): n=4 2802 ng ml
- Plasma concentration of AZD1208, Gmean ([1]; 2 h post-dose, 800 mg): n=2 1705 ng ml
- Plasma concentration of AZD1208, Gmean ([1]; 4 h post-dose, 120 mg): n=3 1649 ng ml
- Plasma concentration of AZD1208, Gmean ([1]; 4 h post-dose, 240 mg): n=6 1899 ng ml
- Plasma concentration of AZD1208, Gmean ([1]; 4 h post-dose, 360 mg): n=3 2483 ng ml
- Plasma concentration of AZD1208, Gmean ([1]; 4 h post-dose, 540 mg): n=3 2508 ng ml
- Plasma concentration of AZD1208, Gmean ([1]; 4 h post-dose, 700 mg): n=4 2882 ng ml
- Plasma concentration of AZD1208, Gmean ([1]; 4 h post-dose, 800 mg): n=2 2509 ng ml
- Plasma concentration of AZD1208, Gmean ([1]; 6 h post-dose, 120 mg): n=3 1657 ng ml
- Plasma concentration of AZD1208, Gmean ([1]; 6 h post-dose, 240 mg): n=6 1637 ng ml
- Plasma concentration of AZD1208, Gmean ([1]; 6 h post-dose, 360 mg): n=2 2130 ng ml
- Plasma concentration of AZD1208, Gmean ([1]; 6 h post-dose, 540 mg): n=3 2023 ng ml
- Plasma concentration of AZD1208, Gmean ([1]; 6 h post-dose, 700 mg): n=4 3291 ng ml
- Plasma concentration of AZD1208, Gmean ([1]; 6 h post-dose, 800 mg): n=2 3401 ng ml
- Plasma concentration of AZD1208, Gmean ([1]; 8 h post-dose, 120 mg): n=3 1262 ng ml
- Plasma concentration of AZD1208, Gmean ([1]; 8 h post-dose, 240 mg): n=6 1466 ng ml
- Plasma concentration of AZD1208, Gmean ([1]; 8 h post-dose, 360 mg): n=3 1813 ng ml
- Plasma concentration of AZD1208, Gmean ([1]; 8 h post-dose, 540 mg): n=3 1739 ng ml
- Plasma concentration of AZD1208, Gmean ([1]; pre-dose, 120 mg): n=3 903.1 ng ml
- Plasma concentration of AZD1208, Gmean ([1]; pre-dose, 240 mg): n=6 560.9 ng ml
- Plasma concentration of AZD1208, Gmean ([1]; pre-dose, 360 mg): n=3 602.5 ng ml
- Plasma concentration of AZD1208, Gmean ([1]; pre-dose, 540 mg): n=4 266.6 ng ml
- Plasma concentration of AZD1208, Gmean ([1]; pre-dose, 700 mg): n=3 819 ng ml
- Plasma concentration of AZD1208, Gmean ([1]; pre-dose, 800 mg): n=2 1099 ng ml
- Half-life, max ([1]; following a single dose): 103 h
- Half-life, min ([1]; following a single dose): 18.9 h
- Mean half-life ([1]; following a single dose): 37.2 h
- Median Tmax ([1]; multiple dosing): ~ 4 h
- Tmax range ([1]; multiple dosing): 1.5 to 6 h
- AZD1208 dose observed in urine ([1]; multiple dosing, Day 15): 0.5%
- Renal clearance ([1]; single and multiple dosing): negligible
- AZD1208 dose eliminated in urine ([1]; single dose, over 72 h): ~ 1%
- Median Tmax ([1]; single dosing): ~ 5 h
- Tmax range ([1]; single dosing): 1.5 to 25 h
- Effect on cell cycle and apoptosis [2]: induced cell cycle arrest and apoptosis
